Columns and labels:
E. Coli = experiment: challenging the growth of E. Coli with measurement of optical density of media; type: cell-based; details: same optical density reduction; comparator 4-chlorophenyl-2-thienyliodonium bromide
From the text: In an experiment challenging the growth of E. Coli with measurement of optical density of media, the present iodonium composition, 3,5-dimethyl 4-chlorophenyl 2-thienyl iodonium bromide, suppressed the optical density of the E. Coli media at one tenth the concentration needed to accomplish the same optical density reduction utilizing 4-chlorophenyl-2-thienyliodonium bromide. Optical density of the media is a semi-quantitative measure of the presence of growing bacteria. Reduced density indicates the test compounds are retarding bacterial growth. Thus, 3,5-dimethyl 4-chlorophenyl 2-thienyl iodonium bromide, which is non-toxic to mammals, has greater antimicrobial activity than 4-chlorophenyl-2-thienyliodonium bromide.

[1] = tested on: several strains of Staphylococcus aurelius, including Methicillin-resistant Staphylococcus aureus isolates; experiment: MIC50 on Staphylococcus strains including Methicillin-resistant Staphylococcus aureus isolates; type: cell-based; details: same bacteria strains, incl. MRSA isolates; comparator 4-chlorophenyl 2-thienyl iodonium chloride
human epithelial cells = experiment: tests of toxicity on human epithelial cells; type: cell-based; details: approximate levels of 0.25 millimole concentrations; compared with controls
mice = details: cited from earlier work

Structure (SMILES)	concentration needed to suppress optical density of E. Coli media, as fraction of that needed with 4-chlorophenyl-2-thienyliodonium bromide (E. Coli)	MIC50 as fraction of the MIC50 for 4-chlorophenyl 2-thienyl iodonium chloride [1]	toxicity on human epithelial cells (human epithelial cells)	oral median lethal dose (LD50) (mice)
Cc1cc([I+]c2cccs2)cc(C)c1Cl.[Br-] [3,5-dimethyl 4-chlorophenyl 2-thienyl iodonium bromide]	one tenth	one fifth	lack of toxicity similar to that of controls	–
Clc1ccc([I+]c2cccs2)cc1.[Br-] [4-chlorophenyl-2-thienyliodonium bromide, reference compound]	–	–	lack of toxicity similar to that of controls	–
Clc1ccc([I+]c2cccs2)cc1.[Cl-] [4-chlorophenyl-2-thienyliodonium chloride]	–	–	–	greater than 4000 mg/kg
